28 compounds from patent US11111251B2, “Positive allosteric modulators of the muscarinic acetylcholine receptor M1” (Vanderbilt University, priority 2016, dated 2021) can be followed below.

Each structure is given as a SMILES string. Where two headings read alike, the source gives them in different places.

The target in the assay is T1, human mAChR M1 (Homo sapiens, UniProt P11229).
T1 sequence (P11229 1-460): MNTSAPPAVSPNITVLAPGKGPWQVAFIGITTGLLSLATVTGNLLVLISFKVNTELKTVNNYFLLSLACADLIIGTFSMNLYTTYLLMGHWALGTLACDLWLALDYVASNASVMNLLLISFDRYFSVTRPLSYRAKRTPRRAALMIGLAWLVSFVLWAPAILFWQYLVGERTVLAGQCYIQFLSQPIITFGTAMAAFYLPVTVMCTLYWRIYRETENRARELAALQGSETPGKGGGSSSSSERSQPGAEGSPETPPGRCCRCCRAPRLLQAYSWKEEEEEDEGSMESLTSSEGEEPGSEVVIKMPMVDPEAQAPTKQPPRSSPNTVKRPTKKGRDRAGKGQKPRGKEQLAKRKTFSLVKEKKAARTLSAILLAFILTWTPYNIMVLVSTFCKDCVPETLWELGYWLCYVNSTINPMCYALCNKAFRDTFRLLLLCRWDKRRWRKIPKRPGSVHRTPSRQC
Briefly: mAChR M1 cell-based functional assay: calcium mobilization, positive allosteric modulator mode (increase in EC20 acetylcholine response). The conditions noted are these: for Emax: read-out: Human M1 Emax (%). In outline:
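PAM potency reflects the concentration-dependent increase in calcium response to an EC20 acetylcholine challenge, given 144 s into a 300 s read after compound addition at 4 s (EC80 follows at 230 s). Cells were hM1-expressing CHO-K1, loaded 50 min with Fluo-4 AM. Curves used 11 points at 1:3 dilutions and four-parameter logistic fitting.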
Background: A change in cytosolic calcium serves as a functional read-out for many receptors and channels.

[1] abbreviates: Table 2, human M1, read-out: Human M1 EC50.
Where [2] appears, read: Table 1, mAChR M1 cell-based functional assay, PAM mode, species not given, read-out: EC50.

The term EC50 denotes the concentration that produces a half-maximal response. The term Emax denotes the greatest response seen or fitted, relative to the assay's reference. As to `Cc1nn(C)cc1-c1ccc(Cc2cc(C(=O)N[C@H]3CCC[C@@H]3O)nc3ccsc23)cc1` [Compound 247, 7-[[4-(1,3-dimethylpyrazol-4-yl)phenyl]methyl]-N-[(1S,2S)-2-hydroxycyclopentyl]thieno[3,2-b]pyridine-5-carboxamide], the concentration giving a half-maximal response (EC50) under setting [1] was 4060 nM. For the same compound, the maximum response (Emax) (Table 2, human M1) came to 30.6%.

For the compound `Cc1ccc(Cc2cc(C(=O)N[C@@H]3CCC[C@H]3O)nc3c(C)csc23)cn1` [Compound 100], the EC50 under setting [1] was 654 nM. The Emax (Table 2, human M1) came to 87.5%.

As to `Cc1csc2c(Cc3ccc(-n4cccn4)cc3)cc(C(=O)NCC3CCOC3)nc12` (centres unmarked) [Compound 321, 3-methyl-7-[(4-pyrazol-1-ylphenyl)methyl]-N-(tetrahydrofuran-3-ylmethyl)thieno[3,2-b]pyridine-5-carboxamide], under setting [1], the EC50 came to 805 nM. The Emax (Table 2, human M1) was 79.2%.

Regarding `Cn1ccc(-c2ccc(Cc3cc(C(=O)N[C@@H]4CCCOC4)nc4ccsc34)cn2)n1` [Compound 423], the EC50 under setting [1] turned out to be 637 nM. Also, the Emax (Table 2, human M1) was determined as 70.6%.

As for `O=C(NCC1CCOCC1)c1cc(Cc2ccc(-c3cncs3)cc2)c2sccc2n1` [Compound 387, N-(tetrahydropyran-4-ylmethyl)-7-[(4-thiazol-5-ylphenyl)methyl]thieno[3,2-b]pyridine-5-carboxamide], the EC50 under setting [1] was 583 nM. Also, the Emax (Table 2, human M1) stood at 69.5%.

With `C[C@@H]1COCC[C@@H]1NC(=O)c1cc(Cc2ccc(-c3cncs3)cc2)c2sccc2n1` [Compound 392, N-[(3S,4S)-3-methyltetrahydropyran-4-yl]-7-[(4-thiazol-5-ylphenyl)methyl]thieno[3,2-b]pyridine-5-carboxamide], the concentration giving a half-maximal response (EC50) under setting [1] came to 199 nM. The Emax (Table 2, human M1) is 65.4%.

As to `O=C(NC1CC2(COC2)C1)c1cc(Cc2ccc(-c3cscn3)cc2)c2sccc2n1` [Compound 231, N-(2-oxaspiro[3.3]heptan-6-yl)-7-[(4-thiazol-4-ylphenyl)methyl]thieno[3,2-b]pyridine-5-carboxamide], the EC50 under setting [1] was determined as 68.7 nM. Moreover, for the setting “Table 2, human M1”, the Emax worked out at 88.5%.

`Cn1cc(-c2ccc(Cc3cc(C(=O)NC4CCOCC4)nc4ccsc34)cc2)nn1` [Compound 229, 7-[[4-(1-methyltriazol-4-yl)phenyl]methyl]-N-tetrahydropyran-4-yl-thieno[3,2-b]pyridine-5-carboxamide]: the EC50 under setting [1] stood at 27.1 nM. For the same compound, the Emax (Table 2, human M1) was 78.6%.

As for `Cc1nc(-c2ccc(Cc3cc(C(=O)N[C@H]4CCCCC[C@@H]4O)nc4ccsc34)cc2)cs1` [Compound 196, N-[(1S,2S)-2-hydroxycycloheptyl]-7-[[4-(2-methylthiazol-4-yl)phenyl]methyl]thieno[3,2-b]pyridine-5-carboxamide], under setting [1], the concentration for a half-maximal effect (EC50) was 234 nM. Also, the maximal effect (Emax) (Table 2, human M1) worked out at 81.3%.

As for `O=C(NC1CCCNC1=O)c1cc(Cc2ccc(-c3cscn3)cc2)c2sccc2n1` (centres unmarked) [Compound 221, N-(2-oxo-3-piperidyl)-7-[(4-thiazol-4-ylphenyl)methyl]thieno[3,2-b]pyridine-5-carboxamide], under setting [1], the EC50 stood at 595 nM. For the setting “Table 2, human M1”, the Emax stood at 86.9%.

Consider `Cc1nc(-c2ccc(Cc3cc(C(=O)N[C@@H]4CCC[C@H]4O)nc4ccsc34)cc2)cs1` [Compound 182, N-[(1R,2R)-2-hydroxycyclopentyl]-7-[[4-(2-methylthiazol-4-yl)phenyl]methyl]thieno[3,2-b]pyridine-5-carboxamide], for which the concentration for a half-maximal effect (EC50) under setting [1] was 183 nM. The Emax (Table 2, human M1) was 84%.

For `Cc1ncc(Cc2cc(C(=O)N[C@H]3CC[C@@H]3O)nc3ccsc23)s1` [Compound 132, N-[(1S,2S)-2-hydroxycyclobutyl]-7-[(2-methylthiazol-5-yl)methyl]thieno[3,2-b]pyridine-5-carboxamide], under setting [1], the EC50 was > 10000 nM. In addition, the Emax (Table 2, human M1) was found to be 54.9%.

As for `Cc1csc2c(Cc3ccc(-c4ccn(C)n4)cc3)cc(C(=O)N[C@H]3CCC[C@@H]3O)nc12` [Compound 303, N-[(1S,2S)-2-hydroxycyclopentyl]-3-methyl-7-[[4-(1-methylpyrazol-3-yl)phenyl]methyl]thieno[3,2-b]pyridine-5-carboxamide], the concentration giving a half-maximal response (EC50) under setting [1] came to 366 nM. The Emax (Table 2, human M1) was found to be 70.7%.

As to `O=C(N[C@H]1CCOC[C@@H]1O)c1cc(Cc2ccc(-n3cccn3)cc2)c2sccc2n1` [Compound 293, N-[(3R,4S)-3-hydroxytetrahydropyran-4-yl]-7-[(4-pyrazol-1-ylphenyl)methyl]thieno[3,2-b]pyridine-5-carboxamide], the EC50 under setting [1] was determined as 6 nM. The Emax (Table 2, human M1) came out at 61.6%.

Take `Cc1ccc(Oc2cc(C(=O)NC(C)C(C)(C)CO)nc3ccsc23)cn1` (centres unmarked) [Compound 34, N-(3-hydroxy-1,2,2-trimethyl-propyl)-7-[(6-methyl-3-pyridyl)oxy]thieno[3,2-b]pyridine-5-carboxamide]: the concentration for a half-maximal effect (EC50) under setting [2] is > 10000 nM.

As to `Cc1ccc(C(=O)c2cc(C(=O)N[C@@H]3CCCC[C@H]3O)nc3ccsc23)cn1` [Compound 145, N-[(1R,2R)-2-hydroxycyclohexyl]-7-(6-methylpyridine-3-carbonyl)thieno[3,2-b]pyridine-5-carboxamide], under setting [1], the EC50 is > 10000 nM. Moreover, the Emax (Table 2, human M1) came to 41.6%.

Turning to `Cc1csc2c(Cc3ccc(-n4cccn4)cc3)cc(C(=O)NCC3CCCCO3)nc12` (centres unmarked) [Compound 320, 3-methyl-7-[(4-pyrazol-1-ylphenyl)methyl]-N-(tetrahydropyran-2-ylmethyl)thieno[3,2-b]pyridine-5-carboxamide], the EC50 under setting [1] worked out at 3980 nM. Under “Table 2, human M1”, the maximum response (Emax) worked out at 60.7%.

Regarding `Cn1ncc2nc(C(=O)NC3CC4(COC4)C3)cc(Cc3ccc(-c4cscn4)cc3)c21` [Compound 489, 1-Methyl-N-(2-oxaspiro[3.3]heptan-6-yl)-7-[(4-thiazol-4-ylphenyl)methyl]pyrazolo[4,3-b]pyridine-5-carboxamide], the half-maximal effective concentration (EC50) under setting [1] came to 2750 nM. Besides, the maximum response (Emax) (Table 2, human M1) came to 52%.

For the compound `Cc1nc(-c2ccc(Cc3cc(C(=O)NC4CC(C)OC(C)C4)nc4ccsc34)cc2)co1` (centres unmarked) [Compound 299, N-(2,6-dimethyltetrahydropyran-4-yl)-7-[[4-(2-methyloxazol-4-yl)phenyl]methyl]thieno[3,2-b]pyridine-5-carboxamide], the EC50 under setting [1] is 702 nM. Besides, the maximum response (Emax) (Table 2, human M1) was 75%.

On to `Cc1nc(-c2ccc(Cc3cc(C(=O)N(C)C4CCOCC4)nc4ccsc34)cc2)co1` [Compound 165, N-methyl-7-[[4-(2-methyloxazol-4-yl)phenyl]methyl]-N-tetrahydropyran-4-yl-thieno[3,2-b]pyridine-5-carboxamide], for which, under setting [1], the EC50 was > 10000 nM. Besides, the maximum response (Emax) (Table 2, human M1) is 70.8%.

On to `O=C(NC1CCCCC1)c1cc(Cc2ccc(-c3cscn3)cc2)c2sccc2n1` [Compound 209, N-cyclohexyl-7-[(4-thiazol-4-ylpheny)methyl]thieno[3,2-b]pyridine-5-carboxamide], for which the EC50 under setting [1] was determined as 3890 nM. Also, the Emax (Table 2, human M1) was 69.7%.

`Cn1cc(-c2ccc(Cc3cc(C(=O)N[C@@H]4CCOC4)nc4ccsc34)cn2)cn1` [Compound 344, 7-[[6-(1-methylpyrazol-4-yl)-3-pyridyl]methyl]-N-[(3R)-tetrahydrofuran-3-yl]thieno[3,2-b]pyridine-5-carboxamide]: the concentration giving a half-maximal response (EC50) under setting [1] came to 798 nM. In addition, under “Table 2, human M1”, the Emax was found to be 85.5%.

On to `O=C(N[C@@H]1CCC[C@H]1O)c1cc(Cc2ccc(C(F)(F)F)nc2)c2sccc2n1` [Compound 88, N-[(1R,2R)-2-hydroxycyclopentyl]-7-[[6-(trifluoromethyl)-3-pyridyl]methyl]thieno[3,2-b]pyridine-5-carboxamide], for which the EC50 under setting [1] was 503 nM. Moreover, the Emax (Table 2, human M1) is 90.5%.

In the case of `Cn1cc(-c2ccc(Cc3cc(C(=O)N[C@@H]4CCOC4)nc4ccsc34)cc2)nn1` [Compound 150, 7-[[4-(1-methyltriazol-4-yl)phenyl]methyl]-N-[(3R)-tetrahydrofuran-3-yl]thieno[3,2-b]pyridine-5-carboxamide], the EC50 under setting [1] worked out at 722 nM. Also, the Emax (Table 2, human M1) worked out at 88.5%.

Turning to `Cn1cc2c(-c3cc(F)c(Cc4cc(C(=O)N[C@H]5CCCC[C@@H]5O)nc5ccsc45)c(F)c3)cccc2n1` [Compound 41, 7-[[2,6-difluoro-4-(2-methylindazol-4-yl)phenyl]methyl]-N-[(1S,2S)-2-hydroxycyclohexyl]thieno[3,2-b]pyridine-5-carboxamide], the 50% effective concentration (EC50) under setting [2] came to 3640 nM.

In the case of `CC1CC(NC(=O)c2cc(Cc3ccc(-c4ccn(C)n4)nc3)c3c(ccn3C)n2)CC(C)O1` (centres unmarked) [Compound 506, N-(2,6-dimethyltetrahydropyran-4-yl)-1-methyl-7-[[6-(1-methylpyrazol-3-yl)-3-pyridyl]methyl]pyrrolo[3,2-b]pyridine-5-carboxamide;], under setting [1], the EC50 was found to be 7120 nM. Besides, the Emax (Table 2, human M1) was 78.2%.

`COCCNC(=O)c1cc(Oc2ccc(C)nc2)c2sccc2n1` [Compound 33, N-(2-methoxyethyl)-7-[(6-methyl-3-pyridyl)oxy]thieno[3,2-b]pyridine-5-carboxamide]: under setting [2], the EC50 was > 10000 nM.

In the case of `Cc1nc(-c2ccc(Cc3cc(C(=O)NC4CCCCNC4=O)nc4ccsc34)cc2)co1` (centres unmarked) [Compound 172, 7-[[4-(2-methyloxazol-4-yl)phenyl]methyl]-N-(2-oxoazepan-3-yl)thieno[3,2-b]pyridine-5-carboxamide], the EC50 under setting [1] was 685 nM. Moreover, the Emax (Table 2, human M1) was 88.8%.
